# Laboratory results from patent publication US20250041306A1, “TARGETED PROTEASE DEGRADATION (TED) PLATFORM” (EUBULUS BIOTHERAPEUTICS INC., priority 2021, published 2025).
# Where two headings read alike, the source gives them in different places.
# Key:
# Format in all cases: cell-based
# [1] = test system: Human Small Cell Lung Cancer NCI-H82; test: Cell proliferation experiment (Alarm blue), H82
# Protocol: (§1) The cells were cultured in conventional ways, and the cells should be passed for at least 2 generations before plating. Cells at the logarithmic growth phase were collected, prepared into single cell suspensions and counted. The concentration of cells was adjusted to desired concentration, and cells were inoculated into a 96-well cell culture plate at 100 μl per well. 100 μL of complete medium of the test compound were added to each well, 2 replicate wells for each concentration were set up, and diluted with a 5-fold gradient, and continued to culture for 72 h. All cells were subjected to EC50 test for corresponding samples.
# (§2) The fluorescence intensity of each well was detected using the Alarm blue method, and IC50 was calculated.
# (§3) IC50 was calculated according to the following formula:
# (§4) [formula] • wherein Min, Max and Slope represent the minimum, maximum and slope respectively.
# [2] = test system: human gastric carcinoma cells N87; test: Cell proliferation experiment (Alarm blue), N87
# Protocol: as §1, §2, §3, §4
# [3] = test system: Human Small Cell Lung Cancer H69; test: Cell proliferation experiment (Alarm blue), H69; conditions: H69 cells, 72 h culture, read-out: Anti cell proliferative activity EC50, H69
# Protocol: as §1, §2, §3, §4
# [4] = test system: Human Colon Cancer cells Colo205; test: Cell proliferation experiment (Alarm blue), Colo205; conditions: Colo205 cells, 72 h culture, read-out: Anti cell proliferative activity EC50, Colo205
# Protocol: as §1, §2, §3, §4
# Human Colon Cancer HT-29 = test: Cell proliferation experiment (Alarm blue), HT-29; conditions: HT-29 cells, 72 h culture, read-out: Anti cell proliferative activity EC50, HT-29
# Protocol: as §1, §2, §3, §4
# [5] = Homo sapiens, NCI-H82, H82 cells, 72 h culture, read-out: Anti cell proliferative activity EC50, H82
# [6] = Homo sapiens, N87 cells, 72 h culture, read-out: Anti cell proliferative activity EC50, N87
# [7] = Homo sapiens, NCI-H82, 72 h, H82 cells, 72 h culture, read-out: Anti cell proliferative activity EC50, H82
# [8] = Homo sapiens, 72 h, N87 cells, 72 h culture, read-out: Anti cell proliferative activity EC50, N87
# [9] = H82 cells, 72 h culture, read-out: Anti cell proliferative activity EC50, H82
# [10] = N87 cells, 72 h culture, read-out: Anti cell proliferative activity EC50, N87
SMILES,"EC50 ([3]; Homo sapiens, NCI-H69) [nM]","EC50 [1, 7] [nM]","EC50 [2, 8] [nM]","EC50 ([4]; Homo sapiens, COLO 205, 72 h) [nM]",EC50 (Human Colon Cancer HT-29; Homo sapiens) [nM],"EC50 [1, 9] [nM]","EC50 [2, 10] [nM]",EC50 [3] [nM],EC50 [4] [nM],other results
CNC(=O)c1ccccc1Nc1nc(Nc2ccc(N3CCN(C(=O)NC4CCN(C(=O)CNCCC#Cc5ccc6c(c5)CN(C5CCC(=O)NC5=O)C6=O)CC4)CC3)cc2)ncc1Cl (stereo not shown) [UB-181235],> 1000,–,–,–,–,–,–,–,–,"EC50 [1, 5]: 253 nM; EC50 [2, 6]: 813 nM; EC50 ([4]; Homo sapiens, COLO 205): 144 nM"
NC(=O)c1ccccc1Nc1nc(Nc2ccc(N3CCN(C(=O)NC4CCN(C(=O)CNCCC#Cc5ccc6c(c5)CN(C5CCC(=O)NC5=O)C6=O)CC4)CC3)cc2)ncc1Cl (stereo not shown) [UB-181236],> 1000,603,92.5,146,–,–,–,–,–,–
CNC(=O)c1ccccc1Nc1nc(Nc2ccc(N3CCN(C(=O)N[C@H]4CC[C@@H](N(CCC#Cc5ccc6c(c5)CN(C5CCC(=O)NC5=O)C6=O)C(=O)OCc5ccc(NC(=O)[C@H](CC(N)=O)NC(=O)[C@H](C)NC(=O)[C@H](C)NC(=O)COCCOC)cc5)CC4)CC3)cc2)ncc1Cl (stereo partly shown) [UB-181237],> 1000,–,–,–,902,–,–,–,–,"EC50 [1, 5]: 141 nM; EC50 [2, 6]: 308 nM; EC50 ([4]; Homo sapiens, COLO 205): 277 nM"
CC[C@H]1C(=O)N(C)c2cnc(Nc3ccc(-c4cn([C@H]5CC[C@@H](N(CCOCCC#Cc6cccc7c6CN(C6CCC(=O)NC6=O)C7=O)C(=O)OCc6ccc(NC(=O)[C@H](CCCNC(N)=O)NC(=O)[C@@H](NC(=O)CCOCCOCCOCCOCCOCCOCCOCCOCCNC(=O)CCN7C(=O)C=CC7=O)C(C)C)cc6)CC5)nn4)cc3OC)nc2N1C1CCCC1 (stereo partly shown) [UB-181238],–,–,–,–,–,–,–,–,–,EC50 ([1]; 72 h): > 1000 nM; EC50 ([2]; 72 h): > 1000 nM
NC(=O)c1ccccc1Nc1nc(Nc2ccc(N3CCN(C(=O)NC4CCN(C(=O)CNCCC#Cc5ccc6c(c5)CN(C5CCC(=O)NC5=O)C6=O)CC4)CC3)cc2)ncc1Cl (stereo not shown) [UB-181239],–,–,–,–,–,354,132,> 1000,175,–
CNC(=O)c1ccccc1Nc1nc(Nc2ccc(N3CCN(C(=O)NC4CCN(CCNCCC#Cc5ccc6c(c5)CN(C5CCC(=O)NC5=O)C6=O)CC4)CC3)cc2)ncc1Cl (stereo not shown) [UB-181240],> 1000,37,92,40.1,181,–,–,–,–,–
CNC(=O)c1ccccc1Nc1nc(Nc2ccc(N3CCN(C(=O)N[C@H]4CC[C@@H](N(CCC#Cc5ccc6c(c5)CN(C5CCC(=O)NC5=O)C6=O)C(=O)OCc5ccc(NC(=O)[C@H](CC(N)=O)NC(=O)[C@H](C)NC(=O)[C@H](C)NC(=O)COCCOCCOCCOC)cc5)CC4)CC3)cc2)ncc1Cl (stereo partly shown) [UB-181242],> 1000,–,–,–,> 1000,–,–,–,–,"EC50 [1, 5]: 94.2 nM; EC50 [2, 6]: 226 nM; EC50 ([4]; Homo sapiens, COLO 205): 75.2 nM"
CNC(=O)c1ccccc1Nc1nc(Nc2ccc(N3CCN(C(=O)N[C@H]4CC[C@@H](N(CCC#Cc5ccc6c(c5)CN(C5CCC(=O)NC5=O)C6=O)C(=O)OC(C)C(C)SSC[C@H](N)C(=O)N[C@H](Cc5ccccc5)C(=O)N[C@H]5CSSC[C@@H](C(=O)N[C@H](CO)[C@@H](C)O)NC(=O)[C@H]([C@@H](C)O)NC(=O)[C@H](CCCCN)NC(=O)[C@@H](Cc6c[nH]c7ccccc67)NC(=O)[C@H](Cc6ccccc6)NC5=O)CC4)CC3)cc2)ncc1Cl (stereo partly shown) [UB-181243],–,–,–,–,–,240,668,> 1000,311,EC50 (Human Colon Cancer HT-29): > 1000 nM
CNC(=O)c1ccccc1Nc1nc(Nc2ccc(N3CCN(C(=O)N[C@H]4CC[C@@H](N(CCC#Cc5ccc6c(c5)CN(C5CCC(=O)NC5=O)C6=O)C(=O)OCc5ccc(NC(=O)[C@H](CCCNC(N)=O)NC(=O)[C@@H](NC(=O)CCCCCN6C(=O)CC(SC[C@H](N)C(=O)N[C@H](Cc7ccccc7)C(=O)N[C@H]7CSSC[C@@H](C(=O)N[C@H](CO)[C@@H](C)O)NC(=O)[C@H]([C@@H](C)O)NC(=O)[C@H](CCCCN)NC(=O)[C@@H](Cc8c[nH]c9ccccc89)NC(=O)[C@H](Cc8ccccc8)NC7=O)C6=O)C(C)C)cc5)CC4)CC3)cc2)ncc1Cl (stereo partly shown) [UB-181246],–,–,–,–,–,298,515,> 1000,236,EC50 (Human Colon Cancer HT-29): > 1000 nM
CNC(=O)c1ccccc1Nc1nc(Nc2ccc(N3CCN(C(=O)NC4CCC(N(CCC#Cc5ccc6c(c5)CN(C5CCC(=O)NC5=O)C6=O)C(=O)OCc5ccc(NC(=O)[C@H](CC(N)=O)NC(=O)[C@H](C)NC(=O)[C@H](C)NC(=O)CCCCCN6C(=O)CC(SC[C@H](N)C(=O)N[C@H](Cc7ccccc7)C(=O)N[C@H]7CSSC[C@@H](C(=O)N[C@H](CO)[C@@H](C)O)NC(=O)[C@H]([C@@H](C)O)NC(=O)[C@H](CCCCN)NC(=O)[C@@H](Cc8c[nH]c9ccccc89)NC(=O)[C@H](Cc8ccccc8)NC7=O)C6=O)cc5)CC4)CC3)cc2)ncc1Cl (stereo partly shown) [UB-181247],–,–,–,–,–,91.4,168,> 1000,169,EC50 (Human Colon Cancer HT-29): > 1000 nM
CNC(=O)c1ccccc1Nc1nc(Nc2ccc(N3CCC(C(=O)N4CCC5(CC4)CC(NCCC#Cc4ccc6c(c4)CN(C4CCC(=O)NC4=O)C6=O)C5)CC3)cc2)ncc1Cl (stereo not shown) [UB-181249],> 1000,386,66.1,52,–,–,–,–,–,–
CNC(=O)c1ccccc1Nc1nc(Nc2ccc(N3CCN(C(=O)N[C@H]4C[C@@H](NCCC#Cc5ccc6c(c5)CN(C5CCC(=O)NC5=O)C6=O)C4)CC3)cc2)ncc1Cl (stereo partly shown) [UB-181250],> 1000,53.7,20.5,48.2,–,–,–,–,–,–
NC(=O)c1ccccc1Nc1nc(Nc2ccc(N3CCN(C(=O)N[C@H]4CC[C@@H](NC5CN(CCC#Cc6ccc7c(c6)CN(C6CCC(=O)NC6=O)C7=O)C5)CC4)CC3)cc2)ncc1Cl (stereo partly shown) [UB-181251],> 1000,32.4,71.9,133,–,–,–,–,–,–
CNC(=O)c1ccccc1Nc1nc(Nc2ccc(N3CCN(C(=O)N[C@H]4C[C@@H](NCC#Cc5ccc6c(c5)CN(C5CCC(=O)NC5=O)C6=O)C4)CC3)cc2)ncc1Cl (stereo partly shown) [UB-181257],> 1000,42.3,71.8,59.4,–,–,–,–,–,–
NC(=O)c1ccccc1Nc1nc(Nc2ccc(N3CCN(C(=O)N[C@H]4C[C@@H](NCC#Cc5ccc6c(c5)CN(C5CCC(=O)NC5=O)C6=O)C4)CC3)cc2)ncc1Cl (stereo partly shown) [UB-181258],31.3,23.8,24.6,37.7,401,–,–,–,–,–
NC(=O)c1ccccc1Nc1nc(Nc2ccc(N3CCN(C(=O)N[C@H]4C[C@@H](NCCC#Cc5ccc6c(c5)CN(C5CCC(=O)NC5=O)C6=O)C4)CC3)cc2)ncc1Cl (stereo partly shown) [UB-181259],19.1,20.9,111,33.9,194,–,–,–,–,–
NC(=O)c1ccccc1Nc1nc(Nc2ccc(N3CCN(C(=O)N[C@H]4C[C@H](NCCC#Cc5ccc6c(c5)CN(C5CCC(=O)NC5=O)C6=O)C4)CC3)cc2)ncc1Cl (stereo partly shown) [UB-181261],61.2,24.9,23.6,24.8,–,–,–,–,–,–
CNC(=O)c1ccccc1Nc1nc(Nc2ccc(N3CCN(C(=O)NC4CCC(N(CCC#Cc5ccc6c(c5)CN(C5CCC(=O)NC5=O)C6=O)C(=O)OCc5ccc(NC(=O)[C@H](CC(N)=O)NC(=O)[C@H](C)NC(=O)[C@H](C)NC(=O)CCCCCN6C(=O)CC(SC[C@H](NC(=O)CC[C@H](NC(=O)c7ccc(NCc8cnc9nc(N)[nH]c(=O)c9n8)cc7)C(=O)O)C(=O)N[C@H](Cc7ccccc7)C(=O)N[C@H]7CSSC[C@@H](C(=O)N[C@H](CO)[C@@H](C)O)NC(=O)[C@H]([C@@H](C)O)NC(=O)[C@H](CCCCN)NC(=O)[C@@H](Cc8c[nH]c9ccccc89)NC(=O)[C@H](Cc8ccccc8)NC7=O)C6=O)cc5)CC4)CC3)cc2)ncc1Cl (stereo partly shown) [UB-181263],–,–,–,–,–,53,> 1000,192,9.1,EC50 (Human Colon Cancer HT-29): > 1000 nM
CNC(=O)c1ccccc1Nc1nc(Nc2ccc(N3CCN(C(=O)N[C@H]4CC[C@@H](N(CCC#Cc5ccc6c(c5)CN(C5CCC(=O)NC5=O)C6=O)C(=O)OC(C)C(C)SSC[C@H](NC(=O)CC[C@H](NC(=O)c5ccc(NCc6cnc7nc(N)[nH]c(=O)c7n6)cc5)C(=O)O)C(=O)N[C@H](Cc5ccccc5)C(=O)N[C@H]5CSSC[C@@H](C(=O)N[C@H](CO)[C@@H](C)O)NC(=O)[C@H]([C@@H](C)O)NC(=O)[C@H](CCCCN)NC(=O)[C@@H](Cc6c[nH]c7ccccc67)NC(=O)[C@H](Cc6ccccc6)NC5=O)CC4)CC3)cc2)ncc1Cl (stereo partly shown) [UB-181266],–,–,–,–,–,152,> 1000,> 1000,234,EC50 (Human Colon Cancer HT-29): > 1000 nM
C[C@H](NC(=O)CCCCCN1C(=O)C=CC1=O)C(=O)N[C@@H](C)C(=O)N[C@@H](CC(N)=O)C(=O)Nc1ccc(COC(=O)N(CCC#Cc2ccc3c(c2)CN(C2CCC(=O)NC2=O)C3=O)C2CCC(NC(=O)N3CCN(c4ccc(Nc5ncc(Cl)c(Nc6ccccc6C(N)=O)n5)cc4)CC3)CC2)cc1 (stereo partly shown) [UB-181295],953,–,–,–,484,–,–,–,–,"EC50 [1, 5]: 106 nM; EC50 ([4]; Homo sapiens, COLO 205): 136 nM"
